Assay results reported in paper PMC11992225, “Antibacterial compounds against non-growing and intracellular bacteria” (npj Antimicrobials and Resistance, 2025).
In brackets after ≈: the same amount, converted by molar mass. Several values for one entry are separate records, joined by “and”; a condition that tells them apart may be missing. Equal entries are not always repeated. Where two headings read alike, the source gives them in different places.

Key:
[1] = system: non-growing S. aureus DSM2569; test: Dilution-regrowth assay (OD600, start-growth-time) on stationary-phase S. aureus; type: cell-based, Staphylococcus aureus; settings: S. aureus; for Regrowth: OD600 after dilution into drug-free medium (mean): OD600 at 6h or 8h
Summary of the method: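 Non-growing S. aureus was tested in a dilution-regrowth format. Cells were cultured and treated for 24 h in 1:4 diluted CA-MHB, pH 7.4, then diluted into drug-free medium, and OD600 was measured every 20 min. Start-growth-time was the time OD600 passed 0.12. Dose-response curves were fitted with a five-parameter logistic equation to derive EC50.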

non-growing UPEC CFT073 [2] = test: Dilution-regrowth assay (screen, hit validation, dose-response) on stationary-phase UPEC; type: cell-based, Escherichia coli; settings: OD600 at 6h or 8h
Summary of the method: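 Regrowth (OD600 after 6 h, 37 °C) of diluted non-growing CFT073, following 24 h compound treatment of 24 h stationary cultures, defines activity relative to untreated control. Screen at 20 µM, validation at 20, 10, 5 µM (duplicates), dose–response in three biological replicates fitted by five-parameter logistic.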

[3] = system: non-growing P. aeruginosa DSM1117; test: Dose-dependent killing analysis (CFU spot-plating) of stationary-phase P. aeruginosa; type: cell-based, Pseudomonas aeruginosa; settings: for Killing: average Δlog10(CFU/ml) / log10(CFU/ml) after treatment, single replicates: P. aeruginosa; for Killing: average Δlog10(CFU/ml): vs 8.887 before treatment
Summary of the method: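 Viability by CFU: samples serially diluted 10-fold in PBS, spotted on LB agar, grown overnight at 37 °C, and colonies counted at the lowest resolvable dilution. Non-growing P. aeruginosa DSM1117 had been dosed for 24 h in 1:4 CA-MHB (pH 7.4); three biological replicates.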

non-growing UPEC CFT073 [4] = test: Dose-dependent killing analysis (CFU spot-plating) of stationary-phase UPEC; type: cell-based, Escherichia coli
Summary of the method: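 Killing assessed by CFU counts: overnight 37 °C LB agar spot plates (10 μl drops of 10-fold PBS dilutions) scored at the lowest dilution with distinct colonies. Samples were compound-treated non-growing UPEC CFT073, 200 μl per well. Performed as three biological replicates.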

P. aeruginosa DSM1117 = test: MIC, standard microdilution assay, growing P. aeruginosa; type: cell-based, Pseudomonas aeruginosa; settings: Pseudomonas aeruginosa, DSM1117, P. aeruginosa
Summary of the method: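 Medium: CA-MHB + 40 mM HEPES, pH 7.4 (UPEC, P. aeruginosa, S. aureus); LPM + 30 mM MES, pH 5.5 (UPEC, extra condition); TSB (S. flexneri). Microdilution format, n = 3.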

[5] = E. coli in 1:4 CA-MHB (pH 7.4), concentration 0.25
[6] = E. coli in 1:4 CA-MHB (pH 7.4), concentration 0.5
[7] = E. coli in 1:4 CA-MHB (pH 7.4), concentration 1
[8] = E. coli in 1:4 CA-MHB (pH 7.4), concentration 2.5
[9] = E. coli in 1:4 CA-MHB (pH 7.4), concentration 5
[10] = E. coli in 1:4 CA-MHB (pH 7.4), concentration 10
[11] = E. coli in LPM (pH 5.5), concentration 0.25
[12] = E. coli in LPM (pH 5.5), concentration 0.5
[13] = E. coli in LPM (pH 5.5), concentration 1
[14] = E. coli in LPM (pH 5.5), concentration 2.5
[15] = E. coli in LPM (pH 5.5), concentration 5
[16] = E. coli in LPM (pH 5.5), concentration 10

CO[C@H]1/C=C/O[C@@]2(C)Oc3c(C)c(O)c4c(c3C2=O)C2=NC3(CCN(CC(C)C)CC3)NC2=C(NC(=O)/C(C)=C\C=C\[C@H](C)[C@H](O)[C@@H](C)[C@@H](O)[C@@H](C)[C@H](OC(C)=O)[C@@H]1C)C4=O [Rifabutin]
Regrowth: OD600 after dilution into drug-free medium (mean) ([1]; concentration 0.1): 0.129
Regrowth: OD600 after dilution into drug-free medium (mean) ([1]; concentration 0.5): 0.135
Regrowth: OD600 after dilution into drug-free medium (mean) ([1]; concentration 2.5): 0.130
Regrowth: OD600 after dilution into drug-free medium (mean) ([1]; concentration 10): 0.096
EC50 ([1]; Staphylococcus aureus, DSM2569, regrowth delay of non-growing bacteria, 1:4 CA-MHB pH 7.4, 24 h treatment, OD600 8 h after dilution, read-out: EC50): 32 nM
Regrowth: OD600 after dilution into drug-free medium (mean) (non-growing UPEC CFT073 [2]; [5]): 0.656
Regrowth: OD600 after dilution into drug-free medium (mean) (non-growing UPEC CFT073 [2]; [6]): 0.633
Regrowth: OD600 after dilution into drug-free medium (mean) (non-growing UPEC CFT073 [2]; [7]): 0.623
Regrowth: OD600 after dilution into drug-free medium (mean) (non-growing UPEC CFT073 [2]; [8]): 0.617
Regrowth: OD600 after dilution into drug-free medium (mean) (non-growing UPEC CFT073 [2]; [9]): 0.605
Regrowth: OD600 after dilution into drug-free medium (mean) (non-growing UPEC CFT073 [2]; [10]): 0.612
Regrowth: OD600 after dilution into drug-free medium (mean) (non-growing UPEC CFT073 [2]; [11]): 0.569
Regrowth: OD600 after dilution into drug-free medium (mean) (non-growing UPEC CFT073 [2]; [12]): 0.563
Regrowth: OD600 after dilution into drug-free medium (mean) (non-growing UPEC CFT073 [2]; [13]): 0.555
Regrowth: OD600 after dilution into drug-free medium (mean) (non-growing UPEC CFT073 [2]; [14]): 0.521
Regrowth: OD600 after dilution into drug-free medium (mean) (non-growing UPEC CFT073 [2]; [15]): 0.497
Regrowth: OD600 after dilution into drug-free medium (mean) (non-growing UPEC CFT073 [2]; [16]): 0.485
Killing: average Δlog10(CFU/ml) ([3]; concentration 0.1): 0.484 log10(CFU/ml)
log10(CFU/ml) after treatment, single replicates ([3]; concentration 0.25): 8.477 log10(CFU/ml) and 8.954 log10(CFU/ml) and 7.778 log10(CFU/ml)
Killing: average Δlog10(CFU/ml) ([3]; concentration 0.5): 0.158 log10(CFU/ml)
Killing: average Δlog10(CFU/ml) ([3]; concentration 2.5): 4.469 log10(CFU/ml)
log10(CFU/ml) after treatment, single replicates ([3]; printed on the line of concentration 1): 8.301 log10(CFU/ml) and 9.041 log10(CFU/ml) and 8.845 log10(CFU/ml)
log10(CFU/ml) after treatment, single replicates ([3]; printed on the line of concentration 5): 4.477 log10(CFU/ml) and 4.778 log10(CFU/ml) and =<4 log10(CFU/ml)
reduction of bacterial counts, non-growing P. aeruginosa ([3]; at 2.5 µM, 1:4 CA-MHB pH 7.4, 24 h treatment): more than four
killing of non-growing P. aeruginosa ([3]; at 2.5 µM, 24 h treatment): > 4 log10
bactericidal activity against non-growing UPEC (CFU counting) (non-growing UPEC CFT073 [4]; 24 h treatment of stationary phase culture): did not kill
log10(CFU/ml) after treatment, single replicates (non-growing UPEC CFT073 [4]; [5]): 9.000 log10(CFU/ml) (2×) and 8.699 log10(CFU/ml)
Killing: average Δlog10(CFU/ml) (non-growing UPEC CFT073 [4]; E. coli in 1:4 CA-MHB (pH 7.4), concentration 0.25, vs 8.977 before treatment): 0.078 log10(CFU/ml)
log10(CFU/ml) after treatment, single replicates (non-growing UPEC CFT073 [4]; [6]): 9.230 log10(CFU/ml) and 8.532 log10(CFU/ml) and 8.699 log10(CFU/ml)
Killing: average Δlog10(CFU/ml) (non-growing UPEC CFT073 [4]; E. coli in 1:4 CA-MHB (pH 7.4), concentration 0.5, vs 8.977 before treatment): 0.157 log10(CFU/ml)
log10(CFU/ml) after treatment, single replicates (non-growing UPEC CFT073 [4]; [7]): 9.322 log10(CFU/ml) and 8.477 log10(CFU/ml) and 8.301 log10(CFU/ml)
Killing: average Δlog10(CFU/ml) (non-growing UPEC CFT073 [4]; E. coli in 1:4 CA-MHB (pH 7.4), concentration 1, vs 8.977 before treatment): 0.277 log10(CFU/ml)
log10(CFU/ml) after treatment, single replicates (non-growing UPEC CFT073 [4]; [8]): 8.699 log10(CFU/ml) and 8.505 log10(CFU/ml) and 8.000 log10(CFU/ml)
Killing: average Δlog10(CFU/ml) (non-growing UPEC CFT073 [4]; E. coli in 1:4 CA-MHB (pH 7.4), concentration 2.5, vs 8.977 before treatment): 0.576 log10(CFU/ml)
log10(CFU/ml) after treatment, single replicates (non-growing UPEC CFT073 [4]; [9]): 9.041 log10(CFU/ml) and 8.447 log10(CFU/ml) and 9.000 log10(CFU/ml)
Killing: average Δlog10(CFU/ml) (non-growing UPEC CFT073 [4]; E. coli in 1:4 CA-MHB (pH 7.4), concentration 5, vs 8.977 before treatment): 0.148 log10(CFU/ml)
log10(CFU/ml) after treatment, single replicates (non-growing UPEC CFT073 [4]; [10]): 8.903 log10(CFU/ml) and 8.176 log10(CFU/ml) and 8.415 log10(CFU/ml)
Killing: average Δlog10(CFU/ml) (non-growing UPEC CFT073 [4]; E. coli in 1:4 CA-MHB (pH 7.4), concentration 10, vs 8.977 before treatment): 0.479 log10(CFU/ml)
log10(CFU/ml) after treatment, single replicates (non-growing UPEC CFT073 [4]; [11]): 6.954 log10(CFU/ml) and 6.415 log10(CFU/ml) and 7.954 log10(CFU/ml)
Killing: average Δlog10(CFU/ml) (non-growing UPEC CFT073 [4]; E. coli in LPM (pH 5.5), concentration 0.25, vs 7.350 before treatment): 0.243 log10(CFU/ml)
log10(CFU/ml) after treatment, single replicates (non-growing UPEC CFT073 [4]; [12]): 7.000 log10(CFU/ml) and 6.778 log10(CFU/ml) and 7.663 log10(CFU/ml)
Killing: average Δlog10(CFU/ml) (non-growing UPEC CFT073 [4]; E. coli in LPM (pH 5.5), concentration 0.5, vs 7.350 before treatment): 0.203 log10(CFU/ml)
log10(CFU/ml) after treatment, single replicates (non-growing UPEC CFT073 [4]; [13]): 6.954 log10(CFU/ml) and 6.398 log10(CFU/ml) and 7.681 log10(CFU/ml)
Killing: average Δlog10(CFU/ml) (non-growing UPEC CFT073 [4]; E. coli in LPM (pH 5.5), concentration 1, vs 7.350 before treatment): 0.339 log10(CFU/ml)
log10(CFU/ml) after treatment, single replicates (non-growing UPEC CFT073 [4]; [14]): 7.322 log10(CFU/ml) and 6.845 log10(CFU/ml) and 7.623 log10(CFU/ml)
Killing: average Δlog10(CFU/ml) (non-growing UPEC CFT073 [4]; E. coli in LPM (pH 5.5), concentration 2.5, vs 7.350 before treatment): 0.087 log10(CFU/ml)
log10(CFU/ml) after treatment, single replicates (non-growing UPEC CFT073 [4]; [15]): 6.477 log10(CFU/ml) and 6.845 log10(CFU/ml) and 7.462 log10(CFU/ml)
Killing: average Δlog10(CFU/ml) (non-growing UPEC CFT073 [4]; E. coli in LPM (pH 5.5), concentration 5, vs 7.350 before treatment): 0.422 log10(CFU/ml)
log10(CFU/ml) after treatment, single replicates (non-growing UPEC CFT073 [4]; [16]): 7.114 log10(CFU/ml) and 6.954 log10(CFU/ml) and 7.633 log10(CFU/ml)
Killing: average Δlog10(CFU/ml) (non-growing UPEC CFT073 [4]; E. coli in LPM (pH 5.5), concentration 10, vs 7.350 before treatment): 0.116 log10(CFU/ml)
MIC (P. aeruginosa DSM1117; 1:4 diluted CA-MHB pH 7.4, read-out: MIC (μM) 1:4 CA-MHB): 10 µM (≈ 8.47 µg/mL)
MIC (P. aeruginosa DSM1117; CA-MHB pH 7.4, read-out: MIC (μM) CA-MHB): 40 µM (≈ 33.9 µg/mL)
